Test: Storage stability of C6-pyrazole salts, HPLC measurement of dimer formation
Format: physicochemical
Settings: for Amount of dimers at the time point t0: t0, sample of about 1.5 g spread on filter paper, HPLC, dimer of formula (II); for Amount of dimers at the time point t1: t1, 23 days in closed dark storage room at 21° C., controlled humidity; for Amount of dimers at the time point t2: t2, 26 days: 23 days dark, then 3 days without light protection under lab hood at room temperature, higher air humidity; for Amount of dimers at the time point t3: t3, 31 days: 5 extra days under the same conditions as t2
Description: As summarized in the table below, three 1-hexyl-1H-pyrazole-4,5-diamine salts were synthesized through precipitation of the free base in presence of the corresponding acids and purification to obtain the hemisulfate, sulfate and dihydrochloride salts. Each sample was then placed on paper.
In order to measure and compare the stability of the three different salts, a small amount of each sample was taken at four different time points and an HPLC analysis was conducted in order to measure the formation of the undesired dimer of formula (II).

Row | Rate of formation of the dimer impurity (compared with the sulfate and dihydrochloride salts, storage conditions of table 1) | Stability compared with the corresponding sulfate and dihydrochloride salts (conditions of storage described in table 1) | Amount of dimers at the time point t0 | Amount of dimers at the time point t1 | Amount of dimers at the time point t2 | Amount of dimers at the time point t3 | SMILES
1 | much lower | more stable | 6 ppm | 37 ppm | 43 ppm | 74 ppm | CCCCCCn1ncc(N)c1N.CCCCCCn1ncc(N)c1N.O=S(=O)(O)O [C6-Pyrazole hemisulfate, 1-hexyl-1H-pyrazole-4,5-diamine hemisulfate]
2 |  |  | 11 ppm | 461 ppm | 726 ppm | 1083 ppm | CCCCCCn1ncc(N)c1N.O=S(=O)(O)O [C6-Pyrazole sulfate]
3 |  |  | 45 ppm | 511 ppm | 772 ppm | 1323 ppm | CCCCCCn1ncc(N)c1N.Cl.Cl [C6-Pyrazole x 2 HCl]
